Reference: PMC5037475, “The Dinoflagellate Toxin 20-Methyl Spirolide-G Potently Blocks Skeletal Muscle and Neuronal Nicotinic Acetylcholine Receptors” (Toxins, 2016)
Entries after “also recorded” stand apart in the source; their conditions may differ. Where two headings read alike, the source gives them in different places.

Tests used:
[1] = target: Torpedo muscle-type α1_2β1γδ nAChR; assay: Competition binding with [125I]α-BTX on Torpedo membranes; parameters: species or system Torpedo marmorata; conditions: for Ki: [125I]α-BTX, equilibrium 4 h, mean ± SEM
[2] = test system: mouse; conditions: cited from earlier work; for LD50: mouse
[3] = target: T1, human α7 nAChR (Homo sapiens, UniProt P36544); assay: Voltage-clamp recording of ACh-evoked currents in Xenopus oocytes expressing human α7 nAChR; assay type: cell-based; conditions: ACh 350 μM (EC50), 3 s, −60 mV; read-out: IC50, inhibition of ACh-evoked current
T1 construct: expressed in transfected cells; host or cells: Xenopus laevis oocytes
Method: Functional analysis of the action of 20-meSPX-G was also performed using voltage-clamp recordings in Xenopus oocytes previously transfected with human α7 or α4β2-encoding cDNAs.
Oocytes were obtained under anesthesia (ethyl-3-amino benzoate methanesulfonate salt solution (1 g·L^−1, Sigma-Aldrich, Saint Quentin Fallavier, France) from mature female Xenopus laevis frogs. Oocytes were recovered and placed in a medium containing no added calcium and containing (in mM): NaCl, 88; KCl, 2.5; MgCl2, 1; and HEPES, 5 (pH 7.6). After extensive washing with this solution, oocytes were transferred to a Barth’s solution containing (in mM): NaCl, 88; KCl, 1; MgSO4, 0.33; CaCl2, 0.41; MgSO4, 0.82; Ca(NO3)2, 0.33; NaHCO3, 2.4; and HEPES, 10 (pH = 7.2) supplemented with kanamycine 0.1 mg·mL^−1. Oocytes (stage V–VI) were defolliculated (manually) and microinjected with 50 nL of human α7 mRNA (0.1 μg·μL^−1), or with a 50 nL mixture of plasmids carrying the cDNA of α4 and β2 (0.3 μg·μL^−1, each). For micro-injection a Nanoliter 2000 Micro4 Controller (World Precision Instruments, Inc., Hertfordshire, UK) was used. […]
Currents evoked by ACh were recorded with a two-microelectrode voltage-clamp amplifier (OC-725B, Warner Instrument Corp., Hamden, CT, USA) at −60 mV holding potential. […]

[4] = test system: isolated mouse extensor digitorum longus (EDL) neuromuscular preparations, endowed with the α1_2βδε nAChR; assay: Nerve-evoked isometric twitch tension on isolated mouse EDL nerve-muscle preparations
Method: The onset of the contraction block was rapid at high 20-meSPX-G concentration, with a complete block of the twitch response within 60 min at concentrations above 10 nM.
Figure 2 (A) Nerve-evoked isometric twitch responses on isolated mouse extensor digitorum longus (EDL) before and after the action of 10 nM 20-meSPX-G; and (B) concentration-response curve for the action of 20-meSPX-G on nerve-evoked isometric twitch response. Data points represent the normalized twitch response, relative to the respective controls. Each point is the mean ± SEM of 4 nerve muscle preparations at 60 min toxin exposure.
Isometric twitch tension measurements were performed on isolated mouse EDL nerve-muscle preparations after rapid removal from euthanized animals. The isolated EDL nerve-muscle preparation was mounted in a silicone-lined bath perfused with a Krebs-Ringer solution of the following composition (in mM): NaCl 140, KCl 5, CaCl2 2, MgCl2 1, glucose 11, and HEPES 5 (pH 7.4), continuously perfused with pure O2 throughout the experiment. For muscle tension measurements, one of the muscle tendons was securely anchored onto the silicone-coated bath. The other tendon was attached to an isometric force displacement transducer (FT03, Grass Instruments, West Warwick, RI, USA) via an adjustable stainless-steel hook. Muscle twitches were induced either by motor nerve stimulation, or by direct electrical muscle stimulation with supramaximal 0.15 ms duration current pulses delivered by a stimulator (S-44 Grass Instruments), through an electrode assembly placed along the muscle length. The resting tension was monitored and kept constant for each tested preparation through a mobile micrometer stage. Signals from the force transducer were collected, and digitized with a Digidata-1322A A/D interface board (Axon Instruments, Union City, CA, USA), as previously reported.

[5] = target: T2, human α4β2 nAChR (Homo sapiens, UniProt P17787+P43681); assay: Competition binding with [3H]epibatidine on HEK-293 cells expressing human α4β2 nAChR; parameters: expressed in transfected cells; host or cells: HEK-293
[6] = test system: mouse neuromuscular system; assay: In vivo compound muscle action potential (CMAP) recording after local i.m. injection in anesthetized mice
Description: Figure 3 Effects of i.m. local injections of 20-meSPX-G in vivo on the mouse neuromuscular system. (A) Compound muscle action potentials (CMAPs) recorded from the tail muscle in response to caudal motor nerve stimulation (increasing intensities, scheme), before and at various times after injection of the cyclic imine toxin (35 pg/mouse); (B) time-course of the effects of 20-meSPX-G injections (1.75, 35 and 350.5 pg/mouse) on the CMAP maximal amplitude. Arrows indicate the time of injections; and (C) dose-response curve of the effects of 20-meSPX-G injections on the maximal CMAP amplitude. Each value represents the mean ± SEM of data obtained from 4–6 mice, and is expressed relatively to that obtained before injections. The sigmoid curve was obtained by nonlinear regression analysis through data points (R^2 ≥ 0.99). The 20-meSPX-G dose required to block 50% of the maximal CMAP amplitude (dashed lines) was 47 pg/mouse.
In vivo recordings from the neuromuscular system were done in mice anesthetized by isoflurane inhalation, with a minimally-invasive electrophysiological method using Qtrac software (Institute of Neurology, Queen Square, London, UK, 2013), as previously described. In brief, electrical stimulations were delivered at a constant frequency of 1.25 Hz to the caudal motor nerve (at the base of the tail) with surface electrodes, and the compound muscle action potential (CMAP) was recorded using needle-electrodes inserted into the tail muscle. 20-me-SPX-G, diluted in phosphate buffer saline containing <1% methanol, was injected intramuscularly (i.m.), between stimulation and ground electrodes, in a single bolus of 1.25−5 µL with a micro-syringe (10 μL volume). Continuous on-line recordings were started around six minutes before injections to determine the toxin and/or solvent effects, as a function of time, on selected excitability parameters, such as the CMAP amplitude and excitability threshold.

[7] = test system: Torpedo muscle-type α1_2β1γδ nAChR; assay: Voltage-clamp recording of ACh-evoked currents in Xenopus oocytes microtransplanted with Torpedo nAChR; assay type: cell-based, Torpedo marmorata
Method: The fact that the amplitude of the ACh-evoked current was usually ≥1 µA (n = 6) was indicative of a good incorporation of the Torpedo muscle-type receptor into the oocyte membrane.
Torpedo marmorata fish were anaesthetized with 0.03% tricaine (Sigma-Aldrich, Saint Quentin Fallavier, France) in seawater, before surgical removal of electric organs. From sliced Torpedo electric organs, purified membranes enriched in the α1_2β1γδ nAChR were prepared at 4 °C in 5 mM glycine, using procedures described previously. Aliquots of the purified membranes were stored at –80 °C until use. Microtransplantation of Torpedo nAChR [39] consisted in a single microinjection of a membrane suspension (50 nL at 3.5 mg·mL^−1 protein) into the oocyte cytoplasm using a Nanoliter 2000 Micro4 Controller mounted on a microscope (World Precision Instruments, Inc., Hertfordshire, UK), as previously described.
Currents evoked by ACh were recorded with a two-microelectrode voltage-clamp amplifier (OC-725B, Warner Instrument Corp., Hamden, CT, USA) at −60 mV holding potential. Micro-electrodes had 0.5–1.5 MΩ tip resistances. A pCLAMP-9/Digidata-1322A system (Molecular Devices, Union City, CA, USA) was used for data recording. […]

[8] = target: T2, human α4β2 nAChR; assay: Voltage-clamp recording of ACh-evoked currents in Xenopus oocytes expressing human α4β2 nAChR; assay type: cell-based; conditions: ACh 150 μM (EC50), −60 mV; read-out: IC50, inhibition of ACh-evoked current
Description: Oocytes were obtained under anesthesia (ethyl-3-amino benzoate methanesulfonate salt solution (1 g·L^−1, Sigma-Aldrich, Saint Quentin Fallavier, France) from mature female Xenopus laevis frogs. Oocytes were recovered and placed in a medium containing no added calcium and containing (in mM): NaCl, 88; KCl, 2.5; MgCl2, 1; and HEPES, 5 (pH 7.6). After extensive washing with this solution, oocytes were transferred to a Barth’s solution containing (in mM): NaCl, 88; KCl, 1; MgSO4, 0.33; CaCl2, 0.41; MgSO4, 0.82; Ca(NO3)2, 0.33; NaHCO3, 2.4; and HEPES, 10 (pH = 7.2) supplemented with kanamycine 0.1 mg·mL^−1. Oocytes (stage V–VI) were defolliculated (manually) and microinjected with 50 nL of human α7 mRNA (0.1 μg·μL^−1), or with a 50 nL mixture of plasmids carrying the cDNA of α4 and β2 (0.3 μg·μL^−1, each). For micro-injection a Nanoliter 2000 Micro4 Controller (World Precision Instruments, Inc., Hertfordshire, UK) was used. Oocytes that were microinjected were incubated at 18 °C in Barth’s solution, and electrophysiological recordings were performed 3−4 days after microinjection.
Currents evoked by ACh were recorded with a two-microelectrode voltage-clamp amplifier (OC-725B, Warner Instrument Corp., Hamden, CT, USA) at −60 mV holding potential. Micro-electrodes had 0.5–1.5 MΩ tip resistances. […]

[9] = target: T3, chick chimeric α7-5HT3 nAChR (UniProt P22770+P23979, M226I/T225I); assay: Competition binding with [125I]α-BTX on HEK-293 cells expressing chimeric α7-5HT3 nAChR
T3 construct: expressed in transfected cells; host or cells: HEK-293

[10] = target: T4, human α3β2 nAChR (Homo sapiens, UniProt P17787+P32297); assay: Competition binding with [3H]epibatidine on HEK-293 cells expressing human α3β2 nAChR; conditions: 4 h, mean ± SEM
T4 construct: expressed in transfected cells; host or cells: HEK-293

[11] = target: Torpedo muscle-type α1_2β1γδ nAChR; conditions: previously reported; cited from earlier work
[12] = test system: mouse neuromuscular system; conditions: local injection, mice; cited from earlier work
[13] = acyclic aminoketone spirolides; cited from earlier work
[14] = target: Torpedo muscle-type α1_(2)β1γδ nicotinic acetylcholine receptor (Torpedo marmorata (endogenous in electric organ)) (UniProt P02711); assay: radioligand binding
[15] = i.m. injection, anesthetized mice, corresponding to 47 pg/mouse

20-methyl spirolide G [20-meSPX-G]
Ki [1]: 0.028 ± 0.005 nM
fold lower affinity than α-toxin from Naja nigricollis ([1]; from Ki values of Table 1): about 2.5 fold
lethality ([2]; mice, i.p. administration of 0.063 mg·kg^−1): absence of lethality
LD50 ([2]; by feeding): 630 µg/kg
LD50 ([2]; intraperitoneal (i.p.) injection): 8 µg/kg
LD50 ([2]; orally by gavage): 160 µg/kg
IC50 [3]: 0.48 nM
reversal of neuromuscular transmission block by wash-out ([4]; continuous wash-out for 30 min with spirolide-free medium): not completely reversed
IC50 ([4]; isolated mouse EDL, 60 min toxin exposure, read-out: IC50, block of nerve-evoked muscle contractions): 4.8 nM
concentration giving complete block of the twitch response within 60 min ([4]; nerve-evoked isometric twitch, isolated mouse EDL): above 10 nM
effect on contractions elicited by direct electrical muscle stimulation ([4]; when nerve-evoked twitch was blocked (10 nM)): lack of a direct effect; also recorded: no action
fold lower affinity in human α4β2 than in human α3β2 nAChR ([5]; [3H]epibatidine competition binding): 90 fold
Ki ([5]; [3H]epibatidine, HEK-293 cells, 4 h, mean ± SEM): 3.6 ± 0.07 nM
onset of the effect on CMAP amplitude ([6]; 1.75 pg/mouse i.m.): 15.8 ± 1.9 min
block of CMAP amplitude ([6]; 1.75 pg/mouse i.m., mean): 9%
block of CMAP amplitude ([6]; 350.5 pg/mouse i.m.): 91%
onset of the effect on CMAP amplitude ([6]; 350.5 pg/mouse i.m.): 7.7 ± 2.1 min
CMAP maximal amplitude after spontaneous recovery, relative to controls ([6]; 35–87.6 pg/mouse i.m.): 78.5%
time for CMAP maximal amplitude to return to 78.5% of controls ([6]; 35–87.6 pg/mouse i.m.): ≤ 53.3 ± 19.6 min
ED50, dose required to block 50% of the maximal CMAP amplitude ([6]; i.m. injection, anesthetized mice): 47 pg/mouse
ED50 (also called IC50), block of maximal CMAP amplitude [6, 15]: 0.0017 µg/kg
ED50, block of maximal CMAP amplitude [6, 15]: 2.4 pmol/kg
agonist action ([7]; 3.1 nM toxin applied alone, −60 mV): no agonist action
IC50 ([7]; ACh 25 µM (EC50), −60 mV holding potential, read-out: IC50, inhibition of ACh-evoked current): 0.36 nM
IC50 [8]: 2.1 nM
Ki ([9]; [125I]α-BTX, HEK-293 cells, mean ± SEM): 0.11 ± 0.08 nM
times more active than MLA ([9]; α7 / chimeric α7-5HT3, from Ki values): about 7.5 times
Ki [10]: 0.04 ± 0.001 nM

C=C1CCCC2=NC[C@H](C)[C@@H](C)C[C@@]23CCC([C@@H]2C=C(C)C(=O)O2)=C(C)[C@@H]3/C=C(\C)[C@@H](O)C[C@@H]2CC[C@@]3(CC[C@@]4(O[C@@H](CC[C@@]4(C)O)C1)O3)O2 [13-desmethyl spirolide C]
Ki [11]: 0.08 nM
IC50, reduction of CMAP amplitude in vivo [12]: 6 ng/kg

COc1cc2c3cc1Oc1cc(ccc1O)C[C@@H]1c4c(cc(OC)c(O)c4Oc4ccc(cc4)C[C@@H]3N(C)CC2)CC[N+]1(C)C [d-tubocurarine, reference compound]
fold higher concentration needed for a similar degree of neuromuscular blockade (IC50) compared with 20-meSPX-G ([4]; comparison with literature value): 75 fold

C=C1CCCC2=NC[C@H](C)[C@@H](C)C[C@@]23CCC(C(=O)O)=C[C@@H]3[C@@H]2O[C@]3(C[C@H]4CCC[C@@]5(CC[C@@]6(O[C@@H](CC[C@@]6(C)O)C1)O5)O4)C[C@@H](C)[C@@H](O)[C@H]2O3 [pinnatoxin A]
Ki [11]: 2.8 nM

C=C(CCCC(=O)C1(CCC(C)CN)CCC(C2C=C(C)C(=O)O2)=C(C)C1/C=C(\C)C(O)CC)CC1CCC(C)(O)C2(CCC3(CC(C)CO3)O2)O1 (stereo not drawn) [spirolide E]
toxicity [13]: no toxicity

spirolide F
toxicity [13]: no toxicity

α-toxin from Naja nigricollis (from UniProt P01426 1-61) (natural protein)
Ki [14]: 0.011 nM

B1: α-Toxin (snake): α-toxin from Naja nigricollis, a short-chain curaremimetic toxin (61 residues and four disulfides), synthesized (protein)
chain: LECHNQQSSQPPTTKTCPGETNCYKKVWRDHRGTIIERGCGCPTVKPGIKLNCCTTDKCNN
modifications: disulfide (positions not given here)
notes: α-toxin from Naja nigricollis, a short-chain curaremimetic toxin (61 residues and four disulfides), synthesized
Ki [1]: 0.011 ± 0.002 nM
